# pIC50: −log10 of the molar value. Activity calls are given as the source filed them. The calls are words filed in the database; no cut-off is given here.
# Legend:
# NCI-H157 = test: Cytotoxicity against human NCI-H157 cells after 72 hrs by MTT assay; assay type: functional, cell-based; conditions: NCI-H157, 72 h
# Bel-7402 [1] = test: Cytotoxicity against human Bel7402 cells after 72 hrs by MTT assay; assay type: functional, cell-based; conditions: Bel-7402, 72 h
# SGC-7901 = test: Cytotoxicity against human SGC7901 cells after 72 hrs by MTT assay; assay type: functional, cell-based; conditions: SGC-7901, 72 h
# [2] = Cytotoxicity against human HL-7702 cells after 72 hrs by MTT assay; assay type: cell-based; conditions: L02, 72 h
# NCI-H446 = test: Cytotoxicity against human NCI-H446 cells after 72 hrs by MTT assay; assay type: functional, cell-based; conditions: NCI-H446, 72 h
# Bcap37 = test: Cytotoxicity against human Bcap37 cells after 72 hrs by MTT assay; assay type: functional, cell-based; conditions: Bcap37, 72 h
# MCF7 = test: Cytotoxicity against human MCF7 cells after 72 hrs by MTT assay; assay type: functional, cell-based; conditions: MCF7, 72 h
# NCI-H460 = test: Cytotoxicity against human H460 cells after 72 hrs by MTT assay; assay type: functional, cell-based; conditions: NCI-H460, 72 h
# Caco-2 = test: Cytotoxicity against human Caco2 cells after 72 hrs by MTT assay; assay type: functional, cell-based; conditions: Caco-2, 72 h
# A549 = test: Cytotoxicity against human A549 cells after 72 hrs by MTT assay; assay type: functional, cell-based; conditions: A549, 72 h
# HepG2 = test: Cytotoxicity against human HepG2 cells after 72 hrs by MTT assay; assay type: functional, cell-based; conditions: HepG2, 72 h
# OVCAR-3 = test: Cytotoxicity against human OVCAR3 cells after 72 hrs by MTT assay; assay type: functional, cell-based; conditions: OVCAR-3, 72 h
# HCT-116 = test: Cytotoxicity against human HCT116 cells after 72 hrs by MTT assay; assay type: functional, cell-based; conditions: HCT-116, 72 h
# MKN-45 = test: Cytotoxicity against human MKN45 cells after 72 hrs by MTT assay; assay type: functional, cell-based; conditions: MKN-45, 72 h
# DU-145 = test: Cytotoxicity against human DU145 cells after 72 hrs by MTT assay; assay type: functional, cell-based; conditions: DU-145, 72 h
# [3] = Cytotoxicity against human LTEP-A2 cells after 72 hrs by MTT assay; assay type: functional, cell-based; conditions: LTEP-A2, 72 h
# Bel-7402 [4] = test: Induction of apoptosis in human Bel7402 cells assessed as early apoptotic cells at 2.5 uM after 48 hrs by annexin V-FITC/propidium iodide staining based flow cytometry (reference value: 6.9 %); assay type: functional
# Bel-7402 [5] = test: Down regulation of CDK2 expression in human Bel7402 cells at 2.5 uM after 48 hrs by Western blotting analysis; assay type: functional, cell-based
# Bel-7402 [6] = test: Down regulation of CDK4 expression in human Bel7402 cells at 2.5 uM after 48 hrs by Western blotting analysis; assay type: functional, cell-based
# Bel-7402 [7] = test: Induction of apoptosis in human Bel7402 cells assessed as late apoptotic cells at 2.5 uM after 24 hrs by annexin V-FITC/propidium iodide staining based flow cytometry (reference value: 7.5 %); assay type: functional
# [8] = Cell cycle arrest in human HL-7702 cells assessed as accumulation at S phase by FACS flow cytometry; assay type: ADME, cell-based; conditions: l02
# Bel-7402 [9] = test: Induction of apoptosis in human Bel7402 cells assessed as early apoptotic cells at 2.5 uM after 12 hrs by annexin V-FITC/propidium iodide staining based flow cytometry (reference value: 3.2 %); assay type: functional
# Bel-7402 [10] = test: Down regulation of CDK1 expression in human Bel7402 cells at 2.5 uM after 48 hrs by Western blotting analysis; assay type: functional, cell-based
# Bel-7402 [11] = test: Down regulation of Cyclin B expression in human Bel7402 cells at 2.5 uM after 48 hrs by Western blotting analysis; assay type: functional, cell-based
# Bel-7402 [12] = test: Down regulation of Cyclin A expression in human Bel7402 cells at 2.5 uM after 48 hrs by Western blotting analysis; assay type: functional, cell-based
# [13] = Cell cycle arrest in human HL-7702 cells assessed as accumulation at G1 phase by FACS flow cytometry; assay type: cell-based; conditions: l02
# Bel-7402 [14] = test: Induction of apoptosis in human Bel7402 cells assessed as caspase 8 activation; assay type: functional, cell-based
# Bel-7402 [15] = test: Induction of apoptosis in human Bel7402 cells assessed as increase in caspase 8 levels; assay type: functional, cell-based
# Bel-7402 [16] = test: Induction of apoptosis in human Bel7402 cells assessed as late apoptotic cells at 2.5 uM after 48 hrs by annexin V-FITC/propidium iodide staining based flow cytometry (reference value: 3.7 %); assay type: functional
# [17] = Cell cycle arrest in human HL-7702 cells assessed as accumulation at sub-G1 phase by FACS flow cytometry; assay type: cell-based; conditions: l02
# Bel-7402 [18] = test: Cell cycle arrest in human Bel7402 cells assessed as accumulation at sub-G1 phase by FACS flow cytometry; assay type: functional
# Bel-7402 [19] = test: Cytotoxicity against human Bel7402 cells measured for 72 hrs by MTT assay; assay type: functional, cell-based
# [20] = Down regulation of Cyclin A expression in human HL-7702 cells assessed as reduction in mRNA level at 2.5 uM after 48 hrs by RT-PCR analysis; assay type: ADME, cell-based; parameters: scale not given: the % may be the effect or the level left; conditions: l02, 48 h
# Bel-7402 [21] = test: Induction of apoptosis in human Bel7402 cells assessed as late apoptotic cells at 2.5 uM after 12 hrs by annexin V-FITC/propidium iodide staining based flow cytometry (reference value: 5.5 %); assay type: functional
# [22] = Cytotoxicity against human HL-7702 cells at 2.5 uM by MTT assay; assay type: cell-based; conditions: l02, 2.5 µM, TDE = time-dependent effect
# [23] = Induction of apoptosis in human HL-7702 cells assessed as late apoptotic cells at 2.5 uM after 48 hrs by annexin V-FITC/propidium iodide staining based flow cytometry (Rvb =8.6 %); assay type: cell-based; conditions: l02, 48 h
# [24] = […] of Cdc25A expression in human HL-7702 cells assessed as reduction in mRNA level at 2.5 uM after 12 to 48 hrs by RT-PCR analysis; assay type: ADME, cell-based; conditions: l02, 2.5 µM
# Bel-7402 [25] = test: Induction of apoptosis in human Bel7402 cells assessed as early apoptotic cells at 2.5 uM after 24 hrs by annexin V-FITC/propidium iodide staining based flow cytometry (reference value: 3.8 %); assay type: functional
# Bel-7402 [26] = test: Down regulation of Cdc25A expression in human Bel7402 cells at 2.5 uM after 12 hrs by Western blotting analysis; assay type: functional, cell-based
# Bel-7402 [27] = test: Cell cycle arrest in human Bel7402 cells assessed as accumulation at G1 phase by FACS flow cytometry; assay type: functional
# [28] = Cell cycle arrest in human HL-7702 cells assessed as accumulation at G2/M phase by FACS flow cytometry; assay type: cell-based; conditions: l02
# [29] = Cytotoxicity against human HL-7702 cells measured for 72 hrs by MTT assay; assay type: cell-based; conditions: l02, 72 h
# [30] = Induction of apoptosis in human HL-7702 cells assessed as early apoptotic cells at 2.5 uM after 48 hrs by annexin V-FITC/propidium iodide staining based flow cytometry (Rvb =6.7 %); assay type: cell-based; conditions: l02, 48 h
# Bel-7402 [31] = test: Cell cycle arrest in human Bel7402 cells assessed as accumulation at G2/M phase by FACS flow cytometry; assay type: functional
# Bel-7402 [32] = test: Down regulation of Cdc25A expression in human Bel7402 cells at 2.5 uM after 48 hrs by Western blotting analysis; assay type: functional, cell-based
# Bel-7402 [33] = test: Cytotoxicity against human Bel7402 cells at 2.5 uM by MTT assay; assay type: functional, cell-based; conditions: TDE = time-dependent effect
smiles,measurement,setting,value
COc1cccc2c1C(=O)c1c(O)c3c(c(O)c1C2=O)C[C@@](O)(C(=O)CO)C[C@@H]3O[C@H]1C[C@H](N)[C@@H](O)[C@H](C)O1 [EPIRUBICIN],pIC50,NCI-H157,5.76
same,pIC50,Bel-7402 [1],5.91
same,pIC50,SGC-7901,6.29
same,pIC50,[2],5.76
same,pIC50,NCI-H446,5.63
same,pIC50,Bcap37,6.05
same,pIC50,MCF7,5.90
same,pIC50,NCI-H460,5.17
same,pIC50,Caco-2,6.39
same,pIC50,A549,6.06
same,pIC50,HepG2,5.65
same,pIC50,OVCAR-3,6.12
same,pIC50,HCT-116,6.24
same,pIC50,MKN-45,6.18
same,pIC50,DU-145,5.40
same,pIC50,[3],5.47
CC1(C)CC[C@]23CO[C@@]4(CC[C@@H]5[C@@]6(C)CC[C@H](O[C@@H]7OC[C@H](O[C@@H]8O[C@H](CO)[C@@H](O)[C@H](O[C@@H]9O[C@H](CO)[C@@H](O)[C@H](O[C@@H]%10O[C@H](CO)[C@@H](O)[C@H](O)[C@H]%10O)[C@H]9O)[C@H]8O[C@@H]8OC[C@@H](O)[C@H](O)[C@H]8O)[C@H](O)[C@H]7O[C@@H]7O[C@H](CO)[C@@H](O)[C@H](O)[C@H]7O)C(C)(C)[C@@H]6CC[C@@]5(C)[C@]4(C)C[C@H]2O)[C@@H]3C1 [ARDISIANOSIDE B],Activity,Bel-7402 [4],17.6%
same,pIC50,NCI-H157,5.29
same,Activity,Bel-7402 [5],Active
same,pIC50,Bel-7402 [1],6.04
same,pIC50,SGC-7901,5.27
same,pIC50,[2],< 4.00
same,Activity,Bel-7402 [6],Active
same,Activity,Bel-7402 [7],3.2%
same,Activity,[8],19.1%
same,Activity,Bel-7402 [9],39.4%
same,pIC50,NCI-H446,5.18
same,pIC50,Bcap37,< 5.00
same,Activity,Bel-7402 [10],Active
same,Activity,Bel-7402 [11],Active
same,Activity,Bel-7402 [12],Active
same,pIC50,MCF7,< 5.00
same,Activity,[13],68.4%
same,Activity,Bel-7402 [14],Active
same,Activity,Bel-7402 [15],Active
same,Activity,Bel-7402 [16],41.5%
same,pIC50,NCI-H460,< 5.00
same,Activity,[17],< 1%
same,Activity,Bel-7402 [18],57.8%
same,pIC50,Caco-2,5.14
same,Activity,Bel-7402 [19],Dose-dependent effect
same,Activity,[20],10%
same,pIC50,A549,5.35
same,pIC50,HepG2,5.53
same,pIC50,OVCAR-3,< 5.00
same,Activity,Bel-7402 [21],3.9%
same,Activity,[22],tde
same,Activity,[23],9.2%
same,pIC50,HCT-116,< 5.00
same,Activity,[24],Toxic
same,Activity,Bel-7402 [25],46.4%
same,pIC50,MKN-45,5.08
same,Activity,Bel-7402 [26],Active
same,pIC50,DU-145,5.21
same,Activity,Bel-7402 [27],74.5%
same,Activity,[28],12.5%
same,Activity,[29],Dose-dependent effect
same,Activity,[30],8.3%
same,Activity,Bel-7402 [31],25.5%
same,pIC50,[3],< 5.00
same,Activity,Bel-7402 [32],Active
same,Activity,Bel-7402 [33],tde
C[C@@H]1O[C@@H](O[C@H]2[C@H](O[C@H]3CO[C@@H](O[C@H]4CC[C@]5(C)[C@H]6CC[C@]78OC[C@@]9(CCC(C)(C)C[C@H]97)[C@H](O)C[C@@]8(C)[C@]6(C)CC[C@H]5C4(C)C)[C@H](O[C@@H]4O[C@H](CO)[C@@H](O)[C@H](O)[C@H]4O)[C@H]3O)O[C@H](CO)[C@@H](O)[C@@H]2O)[C@H](O)[C@H](O)[C@H]1O,Activity,Bel-7402 [4],16.1%
same,pIC50,NCI-H157,5.28
same,pIC50,Bel-7402 [1],5.93
same,pIC50,SGC-7901,5.23
same,pIC50,[2],< 4.00
same,Activity,Bel-7402 [7],3.4%
same,Activity,[8],19.7%
same,Activity,Bel-7402 [9],36.5%
same,pIC50,NCI-H446,5.11
same,pIC50,Bcap37,< 5.00
same,pIC50,MCF7,< 5.00
same,Activity,[13],67.3%
same,Activity,Bel-7402 [15],Active
same,Activity,Bel-7402 [16],36.7%
same,pIC50,NCI-H460,< 5.00
same,Activity,[17],< 1%
same,Activity,Bel-7402 [18],48.4%
same,pIC50,Caco-2,5.12
same,Activity,Bel-7402 [19],Dose-dependent effect
same,pIC50,A549,5.36
same,pIC50,HepG2,5.50
same,pIC50,OVCAR-3,5.09
same,Activity,Bel-7402 [21],5.3%
same,Activity,[22],tde
same,Activity,[23],8.9%
same,pIC50,HCT-116,< 5.00
same,Activity,[24],Toxic
same,Activity,Bel-7402 [25],42.3%
same,pIC50,MKN-45,5.21
same,pIC50,DU-145,5.26
same,Activity,Bel-7402 [27],76.6%
same,Activity,[28],12.3%
same,Activity,[29],Dose-dependent effect
same,Activity,[30],7.2%
same,Activity,Bel-7402 [31],23.4%
same,pIC50,[3],5.10
same,Activity,Bel-7402 [33],tde
